# In US20090264470A1 (priority 2006, published 2009):
# Key:
# [1] = Acute administration: wet mash and food intake and 24 h body weight in lean male C57BL/6J mice; assay type: in vivo, mouse; details: dosed orally at 10 mg/kg
# Description: The goal of this study was to investigate the effects of various ratios of bupropion:(R)-norfluoxetine on body weight and food and water intake in male C57BL/6J mice habituated to the daily presentation of a palatable wet mash diet. […] Animals were maintained on normal-phase lighting. Test compounds were administered orally and measurements were made over the following 24 hours. All experiments included appropriate vehicle-treated control groups.
# Sixty-two male C57BL/6J mice (weight range 20-25 g) were ordered from Harlan UK, Bicester, UK. The mice were individually housed in polypropylene cages at a temperature of 21±4° C. and 55%±20% humidity. Animals were maintained on a normal phase light-dark cycle (lights off for 12 h from 19:00-07:00 h) during which time the room was illuminated by red light. […] In addition, animals were habituated to a daily presentation of a wet mash diet (1 part powdered chow:1.5 parts tap water) placed on a dish on the cage floor. Animals were maintained under these conditions for at least ten days before experimentation commenced.
# Typically an acute study was run each week with each study containing 60 animals. On the day prior to testing, the experimental animals were randomly allocated to suitable treatment groups. Animals were weighed and 2 h wet mash intake was calculated (to the nearest 0.1 g). […]
# Drug administration occurred 60 minutes before the presentation of ‘wet mash’ which was at approximately 09:30 am. […] The mash was replaced with a fresh quantity of wet mash at the 4 hour time point. […] Wet mash was replaced with a known quantity of standard pellets at the 6 hour time point. […] Food and water intakes of the different groups of animals were measured concurrently. The animals were monitored at each reading and any overt drug-induced behavioural effects were recorded. […]
# Results (body weights (g) at 0, 24 h; change in body weight (g) over 24; food and water intake at 1, 2, 4, 6 and 24 h and between 1-2 h, 2-4 h, 4-6 h) were expressed as mean values±SEM. […]
# [2] = Body weight of diet-induced obese male C57BL/6J mice, repeated oral dosing for 28 days; assay type: in vivo, mouse; details: Dunnett's test p<0.001; doses as in Table 2
# Description: Sibutramine, which is currently used clinically, and rimonabant, which has recently received regulatory approval for the management of obesity were used as reference compounds.
# Sixty-five C57BL/6J mice (7-8 weeks of age) were ordered from Charles River, Margate, Kent. Mice were group housed in polypropylene cages with free access to a high fat diet (D12451 45% of Kcal derived from fat; Research Diets, New Jersey, USA) and tap water at all times. Animals were maintained at 21±4° C. and 55±20% humidity on a normal phase 12 h light-dark cycle (lights on 04:30 h)
# Animals were exposed to the high fat diet for 16 weeks. During this time body weight was recorded weekly. […] Body weight and food and water intake was recorded daily. […]
# Body weight and food and water intake were recorded daily. Following drug administration the animals were examined and any overt behaviour was recorded. […]
# The test compounds were dissolved in 1% methylcellulose. […] Drug doses were expressed as free base.
# Resulting body weights, food intake and water intake were expressed as mean values±SEM, and the SEMs are calculated from residuals of the statistical model. Body weight data was analysed by ANCOVA with Day 1 as covariate followed by appropriate comparisons (two-tailed) to determine significant differences from the control group. […] Daily food and water intake data was analysed by ANOVA.
# [3] = target: T1, mouse CB1 (mouse brain membrane) (Mus musculus, UniProt P47746); assay: Competition ligand binding assay, mouse brain membrane preparations; details: mouse brain membranes (FIG. 6)
# T1 construct: human CB1 receptors or mouse brain membrane preparations in 96-well plate format; from tissue; host or cells: mouse brain membrane preparations
# T1 sequence (P47746 whole entry): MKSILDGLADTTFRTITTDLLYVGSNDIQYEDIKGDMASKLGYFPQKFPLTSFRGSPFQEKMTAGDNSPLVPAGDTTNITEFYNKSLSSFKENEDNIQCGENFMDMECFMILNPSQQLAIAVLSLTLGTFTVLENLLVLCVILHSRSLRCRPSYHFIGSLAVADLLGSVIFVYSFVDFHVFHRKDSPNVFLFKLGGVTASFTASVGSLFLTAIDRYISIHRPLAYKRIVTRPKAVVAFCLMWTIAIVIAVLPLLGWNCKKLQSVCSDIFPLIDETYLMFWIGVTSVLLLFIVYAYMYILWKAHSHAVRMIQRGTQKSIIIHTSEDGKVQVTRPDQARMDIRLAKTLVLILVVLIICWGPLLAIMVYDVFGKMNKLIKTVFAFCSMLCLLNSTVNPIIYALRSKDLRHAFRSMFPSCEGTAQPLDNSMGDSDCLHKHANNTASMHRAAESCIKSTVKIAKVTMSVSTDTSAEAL
# Description: (§1) Competition ligand binding assays were performed with the non-selective cannabinoid receptor agonist ([^3H]CP 55,940) (0.75 nM) in the binding buffer containing 50 mM Tris-HCl, pH 7.4, 3 mM MgCl2, 1 mM EDTA, 0.2% BSA using CHO-k1 cell membranes stably expressing human CB1 receptors or mouse brain membrane preparations in 96-well plate format. The receptor membranes (10 μg/well) were pre-incubated with different concentrations of tested compounds in the binding buffer at room temperature for 30 min prior to addition of 0.75 nM [^3H]CP 55,940 in a final volume of 100 μl. The binding was carried out at room temperature for another 2 h. To determine the non-specific binding, experiments were also performed in the presence of 10 μM unlabeled CP 55,940. Binding was terminated by addition of cold binding buffer and filtrated on Whatman GF/B glass-fiber filters using a sampling manifold. The filters were washed 6 times with cold binding buffer and air-dried overnight. The radioactivity was quantitated on a TopCounter (PerkinElmer) after adding scintillation fluid. Specific binding was defined as the difference between the binding in the presence and absence of 10 μM unlabeled CP 55, 940.
# human CB1 receptors [4] = target: T2, human CB1 receptors (Homo sapiens, UniProt P21554); assay: [35S]GTPγS binding assay, CHO-k1 cell membranes; assay type: biochemical
# T2 construct: expressed in transfected cells; host or cells: CHO-k1 cells (membranes)
# T2 sequence (P21554 whole entry): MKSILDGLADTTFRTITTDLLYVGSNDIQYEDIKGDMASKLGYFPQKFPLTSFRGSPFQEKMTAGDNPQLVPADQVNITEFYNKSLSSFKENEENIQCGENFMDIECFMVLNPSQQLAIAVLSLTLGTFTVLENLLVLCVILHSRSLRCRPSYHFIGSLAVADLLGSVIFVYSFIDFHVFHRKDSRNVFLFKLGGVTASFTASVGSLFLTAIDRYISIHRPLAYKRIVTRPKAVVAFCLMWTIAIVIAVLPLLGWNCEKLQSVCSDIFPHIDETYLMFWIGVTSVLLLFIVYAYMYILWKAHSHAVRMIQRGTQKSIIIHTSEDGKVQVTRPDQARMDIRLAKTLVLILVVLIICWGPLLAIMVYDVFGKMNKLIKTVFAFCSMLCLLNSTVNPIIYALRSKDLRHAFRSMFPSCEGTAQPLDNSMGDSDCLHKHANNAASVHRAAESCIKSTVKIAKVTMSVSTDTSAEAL
# Description: [^35S]GTPγS binding assays were performed with CHO-k1 cell membranes stably expressing human CB1 receptors in 96-well ScintiPlate (PerkinElmer). The membranes (12.5 μg/well) were preincubated with compound 7 in the binding buffer (50 mM Tris-HCl, pH 7.4, 100 mM NaCl, 3 mM MgCl2, 0.2 mM EDTA, 0.2% BSA and 10 μM GDP) at 30° C. for 30 min, then added various concentrations of agonists (WIN 55212-2 or CP 55,940) and [^35S]GTPγS (0.2 nM) in a final volume of 200 μl. Reactions were carried out at 30° C. for 60 min, followed by centrifugation of plate at […] for 15 min. After removing supernatant, the radioactivity was quantitated on a TopCounter.
# CB2 receptor = target: T3, CB2 receptor (Homo sapiens, UniProt P34972); assay: Ca2+i response to 2-AG (dose-response with or without compound), CB2 receptor bearing cells; assay type: cell-based; details: CB2 receptor bearing cells (FIG. 2)
# T3 construct: host or cells: CB2 receptor bearing cells
# T3 sequence (P34972 whole entry): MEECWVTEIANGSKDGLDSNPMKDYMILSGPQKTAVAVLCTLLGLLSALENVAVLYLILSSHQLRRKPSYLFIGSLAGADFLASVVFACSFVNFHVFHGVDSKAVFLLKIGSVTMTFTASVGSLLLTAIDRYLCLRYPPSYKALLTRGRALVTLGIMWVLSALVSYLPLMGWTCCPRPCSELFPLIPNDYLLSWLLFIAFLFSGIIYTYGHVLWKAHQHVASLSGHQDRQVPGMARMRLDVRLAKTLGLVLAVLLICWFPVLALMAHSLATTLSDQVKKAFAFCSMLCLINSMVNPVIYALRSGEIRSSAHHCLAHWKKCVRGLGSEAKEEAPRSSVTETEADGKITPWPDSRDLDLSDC
# [5] = target: T4, Human Cannabinoid 1 (CB1) (Homo sapiens, UniProt P21554); assay: Ca2+i response to 2-AG (dose-response with or without compound), CB1 GqΔGi/CHO cells, DSIS flow cytometry; assay type: cell-based; details: 2-AG with or without compound (FIG. 2)
# T4 construct: expressed in transfected cells; host or cells: CHO cells stably expressing the GqΔGi chimera
# T4 sequence (P21554 whole entry): as the sequence (P21554 whole entry) above
# Source text: cDNA for the G protein GqΔGi chimera was generated by PCR and inserted into the polylinker region of the pcDNA3/hygro+vector (Invitrogen). Stable expression of GqΔGi chimera protein in CHO cell line was generated under hygromycin selection. Human Cannabinoid 1 (CB1) cDNA was inserted into the polylinker region of the pcDNA3.1/(+) vector (Invitrogen) and DNA was introduced into the GqΔGi/CHO cell line by Lipofectamine reagent (Invitrogen). Cell lines stably expressing the CB receptor with Gq ΔGi chimera protein were generated by double selection with hygromycin and G418 (Coward, P., et al. 1999. Chimeric G proteins allow a high-throughput signaling assay of Gi-coupled receptors. Anal Biochem. 270:242-8).
# CB1 Cells were plated 24-48 hours in advance, and were harvested with trypsin at ˜80% confluency. […]
# The probe-loaded CB1 and Control cell mixture was placed in the Cell Suspension System on the DSIS where they were continuously rocked to keep them in a suspended state. […] The DSIS software, NVS Sampler, recorded a timing file and the CyAn software, Summit, recorded a data file. These two files were then compiled and analyzed by our proprietary software, NVS Analyzer, to determine the percent of cells that responded to each concentration. The data was transferred to GraphPAD Prism for a non-linear regression curve fit that determined the EC50. […]
# human CB1 receptors [6] = target: T2, human CB1 receptors; assay: Competition ligand binding assay, CHO-k1 cell membranes; details: human CB1 cell membranes (FIG. 6)
# Description: as §1
SMILES,24 hour body weight change versus vehicle ([1]; one-way ANOVA (FIG. 10)),daily food intake versus vehicle ([1]; one-way ANOVA (FIG. 15)),body weight versus vehicle ([1]; one-way ANOVA (FIG. 16)),weight reduction as compared to vehicle on day 29 [2],"inhibition of binding of [3H]CP 55,940 [3]",pA2 estimation using CP 55940 as an agonist (human CB1 receptors [4]; CB1 cell line membranes (FIG. 4)),antagonist versus inverse agonist activity in [35S]GTPγS binding (human CB1 receptors [4]; response dropped below basal levels (FIG. 5)),effect on the 2-AG dose response (Ca2+i) (CB2 receptor),effect on the 2-AG dose response (Ca2+i) [5],"inhibition of binding of [3H]CP 55,940 (human CB1 receptors [6])"
Cc1c(C(=O)NN2CCCCC2)nn(-c2ccc(Cl)cc2Cl)c1-c1ccc(Cl)cc1 [Rimonabant],No significant differences versus vehicle,No significant differences versus vehicle,No significant differences versus vehicle,statistically significant weight reduction,,,,,,
Fc1ccc(C(OCCCc2c[nH]cn2)c2ccc(F)cc2)cc1 [compound 7],,,,,almost fully inhibited,did not support an allosteric effect,inverse agonist activity,No effect,right shift,partially inhibited
